Results on three compounds are retold here after publication PMC7368294 (Proceedings of the National Academy of Sciences of the …, 2020).

Structures are written as SMILES. Where two headings read alike, the source gives them in different places.

In test [1] the target is Amα1/Amα2/Amα8/Amβ1 nAChR (Apis mellifera, UniProt A0A7M7MMZ9+A0A8U0WQ70+A0A8U0WQC0+A0A8U0WQD1). Nature of the test: two-electrode voltage clamp of Xenopus oocytes, agonist concentration-response. Type of test: cell-based.
The target of test [2] is T1, Btα1/Btα8/Btβ1 nAChR (Bombus terrestris, UniProt A0A9B0BGM1+A0A9B0F4H3+A0A9B2JDZ7).
T1 sequence (A0A9B0F4H3 44-615): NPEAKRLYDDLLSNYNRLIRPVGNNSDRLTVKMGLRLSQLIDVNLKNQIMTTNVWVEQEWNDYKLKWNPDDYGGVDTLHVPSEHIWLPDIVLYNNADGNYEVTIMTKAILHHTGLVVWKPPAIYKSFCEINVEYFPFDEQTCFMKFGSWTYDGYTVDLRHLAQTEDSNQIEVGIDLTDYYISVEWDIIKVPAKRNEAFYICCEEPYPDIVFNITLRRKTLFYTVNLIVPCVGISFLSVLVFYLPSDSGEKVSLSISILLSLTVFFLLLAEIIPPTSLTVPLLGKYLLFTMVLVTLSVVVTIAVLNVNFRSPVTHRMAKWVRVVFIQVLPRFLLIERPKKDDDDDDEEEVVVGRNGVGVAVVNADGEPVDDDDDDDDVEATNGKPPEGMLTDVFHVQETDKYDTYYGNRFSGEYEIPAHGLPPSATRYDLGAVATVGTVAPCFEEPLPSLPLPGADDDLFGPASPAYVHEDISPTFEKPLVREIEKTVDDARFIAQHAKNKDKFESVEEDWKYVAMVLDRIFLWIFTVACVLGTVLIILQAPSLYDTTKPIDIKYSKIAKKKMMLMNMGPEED
T1 sequence (A0A9B2JDZ7 22-535): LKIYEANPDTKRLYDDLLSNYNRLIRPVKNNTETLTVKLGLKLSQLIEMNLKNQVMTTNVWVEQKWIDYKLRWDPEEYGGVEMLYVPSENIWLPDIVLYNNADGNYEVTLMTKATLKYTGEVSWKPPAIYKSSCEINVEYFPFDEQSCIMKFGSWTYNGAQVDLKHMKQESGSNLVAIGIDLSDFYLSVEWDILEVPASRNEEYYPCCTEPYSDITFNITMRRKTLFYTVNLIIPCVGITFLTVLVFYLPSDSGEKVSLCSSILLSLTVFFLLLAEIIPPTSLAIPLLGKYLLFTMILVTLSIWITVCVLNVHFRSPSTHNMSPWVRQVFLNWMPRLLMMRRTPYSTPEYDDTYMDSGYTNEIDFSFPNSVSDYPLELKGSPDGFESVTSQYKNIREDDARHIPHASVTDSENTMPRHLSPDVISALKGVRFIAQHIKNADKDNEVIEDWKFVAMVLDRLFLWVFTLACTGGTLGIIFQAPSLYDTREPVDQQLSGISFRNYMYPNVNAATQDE
T1 sequence (A0A9B0BGM1 19-519): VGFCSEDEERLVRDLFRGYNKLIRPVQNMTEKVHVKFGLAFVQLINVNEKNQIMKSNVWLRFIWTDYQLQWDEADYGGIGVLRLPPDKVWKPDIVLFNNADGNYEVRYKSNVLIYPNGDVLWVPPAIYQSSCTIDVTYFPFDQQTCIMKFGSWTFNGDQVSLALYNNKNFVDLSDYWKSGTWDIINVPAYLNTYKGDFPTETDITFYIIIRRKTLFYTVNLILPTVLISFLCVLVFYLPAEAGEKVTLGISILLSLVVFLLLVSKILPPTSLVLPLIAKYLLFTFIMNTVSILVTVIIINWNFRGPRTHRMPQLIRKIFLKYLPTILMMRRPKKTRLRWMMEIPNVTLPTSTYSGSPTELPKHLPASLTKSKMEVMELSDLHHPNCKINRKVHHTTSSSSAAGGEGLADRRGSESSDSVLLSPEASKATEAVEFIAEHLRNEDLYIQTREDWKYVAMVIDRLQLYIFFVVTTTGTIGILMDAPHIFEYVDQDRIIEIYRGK
The description is as above. Type of test: cell-based.

In test [3] the target is T1, Btα1/Btα8/Btβ1 nAChR. Nature of the test: cell-based. On the set-up: species or system Xenopus laevis oocytes. As to conditions: Oocyte.
A further test deals with T2, Dα1/Dβ1 nAChR (Drosophila melanogaster, UniProt P04755+P09478).
T2 sequence (P09478 22-567): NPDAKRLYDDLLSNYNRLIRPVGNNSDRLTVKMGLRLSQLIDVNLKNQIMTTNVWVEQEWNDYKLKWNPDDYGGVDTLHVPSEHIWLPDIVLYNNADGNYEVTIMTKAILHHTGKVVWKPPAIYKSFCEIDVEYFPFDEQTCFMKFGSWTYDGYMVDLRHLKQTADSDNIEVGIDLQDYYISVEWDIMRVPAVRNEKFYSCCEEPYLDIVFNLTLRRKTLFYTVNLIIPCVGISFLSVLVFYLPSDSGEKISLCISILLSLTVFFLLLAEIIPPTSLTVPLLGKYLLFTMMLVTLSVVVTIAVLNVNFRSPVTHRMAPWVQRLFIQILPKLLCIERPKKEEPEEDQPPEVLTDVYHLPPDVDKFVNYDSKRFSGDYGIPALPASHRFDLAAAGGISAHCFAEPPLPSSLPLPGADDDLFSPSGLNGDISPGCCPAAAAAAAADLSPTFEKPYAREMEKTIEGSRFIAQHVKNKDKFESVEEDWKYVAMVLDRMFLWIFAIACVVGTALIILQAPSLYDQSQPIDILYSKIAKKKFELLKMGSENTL
T2 sequence (P04755 25-521): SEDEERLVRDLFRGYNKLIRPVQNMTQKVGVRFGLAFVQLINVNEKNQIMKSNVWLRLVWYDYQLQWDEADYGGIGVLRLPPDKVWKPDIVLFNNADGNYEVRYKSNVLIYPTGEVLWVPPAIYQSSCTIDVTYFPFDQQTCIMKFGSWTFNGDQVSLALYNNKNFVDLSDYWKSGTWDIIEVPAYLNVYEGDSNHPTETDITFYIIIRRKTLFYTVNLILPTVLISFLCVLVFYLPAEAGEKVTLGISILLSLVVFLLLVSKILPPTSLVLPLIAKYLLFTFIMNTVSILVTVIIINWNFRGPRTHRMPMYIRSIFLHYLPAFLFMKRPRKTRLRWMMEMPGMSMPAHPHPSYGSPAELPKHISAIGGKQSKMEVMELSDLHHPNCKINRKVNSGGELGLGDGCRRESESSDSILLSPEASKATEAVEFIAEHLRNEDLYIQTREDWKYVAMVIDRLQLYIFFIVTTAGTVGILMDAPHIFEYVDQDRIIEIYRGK
The test can be described thus: cell-based. Particulars: Oocyte. On the set-up: species or system Xenopus laevis oocytes.

Sequence of Amα1/Amα2/Amα8/Amβ1 nAChR (A0A7M7MMZ9 44-627): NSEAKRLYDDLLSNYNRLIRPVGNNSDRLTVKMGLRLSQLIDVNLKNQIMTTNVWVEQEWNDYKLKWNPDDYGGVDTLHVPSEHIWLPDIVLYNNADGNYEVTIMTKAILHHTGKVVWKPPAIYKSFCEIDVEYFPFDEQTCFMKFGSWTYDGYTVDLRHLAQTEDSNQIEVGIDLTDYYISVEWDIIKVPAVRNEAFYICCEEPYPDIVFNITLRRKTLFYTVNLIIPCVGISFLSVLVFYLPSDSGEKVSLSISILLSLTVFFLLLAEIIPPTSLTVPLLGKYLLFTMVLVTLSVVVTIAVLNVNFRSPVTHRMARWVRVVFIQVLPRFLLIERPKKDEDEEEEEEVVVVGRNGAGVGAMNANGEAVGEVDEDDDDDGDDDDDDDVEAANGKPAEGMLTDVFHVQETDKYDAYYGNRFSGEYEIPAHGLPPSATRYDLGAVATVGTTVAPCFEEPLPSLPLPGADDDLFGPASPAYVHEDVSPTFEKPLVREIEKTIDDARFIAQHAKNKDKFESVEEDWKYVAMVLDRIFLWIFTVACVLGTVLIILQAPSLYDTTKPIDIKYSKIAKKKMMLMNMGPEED
Sequence of Amα1/Amα2/Amα8/Amβ1 nAChR (A0A8U0WQD1 18-541): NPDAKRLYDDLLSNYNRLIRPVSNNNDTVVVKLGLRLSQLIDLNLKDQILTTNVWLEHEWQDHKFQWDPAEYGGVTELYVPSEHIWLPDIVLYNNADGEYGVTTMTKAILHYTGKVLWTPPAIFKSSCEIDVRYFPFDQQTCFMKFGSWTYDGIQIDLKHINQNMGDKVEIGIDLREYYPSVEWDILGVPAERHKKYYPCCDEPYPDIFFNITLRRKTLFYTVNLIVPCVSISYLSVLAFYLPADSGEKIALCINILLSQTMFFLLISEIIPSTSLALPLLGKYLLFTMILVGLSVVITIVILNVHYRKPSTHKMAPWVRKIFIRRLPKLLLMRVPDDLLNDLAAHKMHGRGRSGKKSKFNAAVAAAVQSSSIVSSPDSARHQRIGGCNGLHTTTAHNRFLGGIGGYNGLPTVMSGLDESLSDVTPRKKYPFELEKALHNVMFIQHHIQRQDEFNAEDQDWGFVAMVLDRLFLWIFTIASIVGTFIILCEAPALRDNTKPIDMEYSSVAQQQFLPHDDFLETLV
Sequence of Amα1/Amα2/Amα8/Amβ1 nAChR (A0A8U0WQ70 25-537): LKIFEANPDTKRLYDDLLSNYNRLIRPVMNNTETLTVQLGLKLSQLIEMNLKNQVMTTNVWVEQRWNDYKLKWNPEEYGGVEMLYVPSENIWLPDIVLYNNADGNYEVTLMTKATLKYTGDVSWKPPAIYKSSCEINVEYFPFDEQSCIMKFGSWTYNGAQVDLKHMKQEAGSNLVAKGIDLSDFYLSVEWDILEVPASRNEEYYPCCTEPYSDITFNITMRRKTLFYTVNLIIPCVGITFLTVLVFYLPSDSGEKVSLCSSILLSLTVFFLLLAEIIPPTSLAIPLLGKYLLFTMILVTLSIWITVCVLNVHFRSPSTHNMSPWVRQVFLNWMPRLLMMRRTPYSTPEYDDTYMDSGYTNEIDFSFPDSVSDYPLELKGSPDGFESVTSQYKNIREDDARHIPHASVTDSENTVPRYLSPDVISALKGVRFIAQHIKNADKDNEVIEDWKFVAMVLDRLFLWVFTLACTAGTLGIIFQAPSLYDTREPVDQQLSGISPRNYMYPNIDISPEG
Sequence of Amα1/Amα2/Amα8/Amβ1 nAChR (A0A8U0WQC0 25-520): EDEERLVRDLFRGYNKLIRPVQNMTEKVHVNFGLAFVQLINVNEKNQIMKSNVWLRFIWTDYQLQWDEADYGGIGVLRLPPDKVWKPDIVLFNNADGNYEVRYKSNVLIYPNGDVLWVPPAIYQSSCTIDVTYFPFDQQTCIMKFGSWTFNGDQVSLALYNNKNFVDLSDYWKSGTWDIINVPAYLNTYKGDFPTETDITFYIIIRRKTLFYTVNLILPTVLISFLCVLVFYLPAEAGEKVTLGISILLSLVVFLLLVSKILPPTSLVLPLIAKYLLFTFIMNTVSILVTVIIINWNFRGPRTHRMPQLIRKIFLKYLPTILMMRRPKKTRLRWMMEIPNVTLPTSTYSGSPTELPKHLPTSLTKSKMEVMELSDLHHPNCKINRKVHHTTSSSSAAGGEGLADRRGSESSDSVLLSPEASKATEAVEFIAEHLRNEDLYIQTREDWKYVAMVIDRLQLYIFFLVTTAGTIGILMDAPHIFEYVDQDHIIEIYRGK

On to `CN/C(=N\[N+](=O)[O-])NCc1cnc(Cl)s1` [clothianidin], for which the values for the EC50 (in test [1]; on Btα1/Btα8/Btβ1 nAChR [2]) were 8.13 nM and 13.5 nM, respectively. In addition, the figures for the Emax at Btα1/Btα8/Btβ1 nAChR [3] (read-out: Clothianidin / Imax) and at Dα1/Dβ1 nAChR (read-out: Clothianidin / Imax) were 75.9 ± 1.8% and 29.6 ± 1.3%, respectively.
Consider `O=[N+]([O-])NC1=NCCN1Cc1ccc(Cl)nc1` [imidacloprid], for which the EC50 in test [1] was 33.1 nM; at Btα1/Btα8/Btβ1 nAChR [2], 25.1 nM. Moreover, the Emax at Btα1/Btα8/Btβ1 nAChR [3] (read-out: Imidacloprid / Imax) turned out to be 10.7 ± 1%; at Dα1/Dβ1 nAChR (read-out: Imidacloprid / Imax) it was 11.2 ± 0.9%.
On to `N#C/N=C1\SCCN1Cc1ccc(Cl)nc1` [thiacloprid], for which the figures for the EC50 (in test [1]; on Btα1/Btα8/Btβ1 nAChR [2]) were 6.92 nM and 51.3 nM, respectively. Moreover, the Emax was 9.4 ± 0.8% at Btα1/Btα8/Btβ1 nAChR [3] (read-out: Thiacloprid / Imax) and 6.5 ± 0.5% on Dα1/Dβ1 nAChR (read-out: Thiacloprid / Imax).

What is called EC50 is the concentration needed to bring the measured effect to its halfway point. High values mean lower potency in that assay, low ones higher potency in that assay.
